Experimental data as given in patent publication US9126056B2, “Method of promoting hair growth” (ENERGENESIS BIOMEDICAL CO., LTD., priority 2010, dated 2015).

Tested on: human dermal papilla cells
Test: Human dermal papilla cell proliferation test
Format: cell-based
Settings: 0.002% in culture media; cell count at 12-60 hour; FIG. 1
Method: The promotion of cell proliferation by adenine was evaluated using human dermal papilla cells, compared with adenosine, and minoxidil under the following conditions, the results are shown in FIG. 1.
Determination of the proliferation of human dermal papilla cells in the culture media containing adenine, adenosine, and minoxidil. Supplements: 0.002% of adenine, adenosine, minoxidil.
• (1) Prepare 0.002% adenine, adenosine, minoxidil containing testing media using the hair follicle dermal papilla cell media (cat. No. 611-500, Cell applications, Inc). • (2) Seed the isolated human dermal papilla cells in 96-well culture plate with a density of 5,000 cells per well. Add 0.1 mL prepared culture media into individual well. • (3) At 12, 24, 36, 48 and 60 hour after cell seeding, visually count the total cell number using hemacytometer. • (4) Evaluate the result.

Nc1ncnc2nc[nH]c12 [adenine]
proliferation of human dermal papilla cells (in words): promotes the proliferation
